Measured values published in patent US8193245B2, “Composition comprising oleic acid and the use thereof” (University-Industry Cooperation Group of Kyung Hee …, priority 2005, dated 2012).

Key:
[1] = system: neuronal cell injury caused by focal cerebral ischemia; test: Neuroprotective activity, middle cerebral artery occlusion (intraluminal suture) with TTC staining; format: in vivo, Sprague-Dawley rats
ICR mice = test: Acute toxicity test on ICR mice; format: in vivo
Protocol: (§1) The acute toxicity tests on ICR mice (mean body weight 25±5 g) and Sprague-Dawley rats (300±10 g, Jung-Ang Lab Animal Inc.) were performed using the oleic acid of the Example 1. Four group consisting of 10 mice or rats was administrated orally with 100 mg/kg, 250 mg/kg, 500 mg/kg and 1000 mg/kg of test sample or solvents (0.2[…], i.p.) respectively and observed for 2 weeks.
(§2) The acute toxicity tests on ICR mice and Sprague-Dawley rats were performed using the extract of the Example 1. Four group consisting of 10 mice or rats was administrated intraperitoneally with 25 mg/kg, 50 mg/kg, 100 mg/kg and 200 mg/kg of test sample or solvents (0.2[…], i.p.), respectively and observed for 24 hours.

Sprague-Dawley rats = test: Acute toxicity test on Sprague-Dawley rats; format: in vivo
Protocol: as §1, §2

[2] = intraperitoneally 25, 50, 100 and 200 mg/kg, observed for 24 hours
[3] = orally 100, 250, 500 and 1000 mg/kg, observed for 2 weeks

`CCCCCCCC/C=C\CCCCCCCC(=O)O` [oleic acid, Cis-9-octadecenoic acid] was tested, and the “staining area with TTC (white) versus control group” value ([1]; 1 mg/kg, 10 mg/kg, 100 mg/kg, 2 h MCA occlusion, 24 hours after reperfusion, FIG. 1) was “smaller staining area with TTC (white) due to little damage of neuronal cell than control group”, the “protective effect on neuronal cell death compared with control group” value ([1]; group C: 10 mg/kg) was 32.9% and the “protective effect on neuronal cell death compared with control group” value ([1]; group D: 100 mg/kg) was 64.9%. For the same compound, the “treatment-related effects on mortality, clinical signs, body weight changes and gross findings” value (ICR mice; [2]) was “no treatment-related effects”, the “treatment-related effects on mortality, clinical signs, body weight changes and gross findings” value (ICR mice; [3]) was “no treatment-related effects” and the “treatment-related effects on mortality, clinical signs, body weight changes and gross findings” value (Sprague-Dawley rats; [2]) was “no treatment-related effects”. For the same compound, the “treatment-related effects on mortality, clinical signs, body weight changes and gross findings” value (Sprague-Dawley rats; [3]) was “no treatment-related effects”.
